One experiment has as its target T1, HDAC1 (Homo sapiens, UniProt Q13547).
T1 construct: cell extract containing HDAC (HeLa in these experiments); endogenous in cells; host or cells: HeLa cell extract
Nature of the experiment: HDAC-1 immunocapture fluorescent biochemical assay (HeLa lysate). The note with it: HDAC1 immunocaptured from HeLa extract. As to the method: The HDAC-1 assay represents a novel immunocapture assay procedure. […] The HDAC1 is captured on a protein A coated plate using HDAC1 specific antibody, and is then allowed to react with the substrate.
This assay in performed in four general steps. In the first step (FIG. 1A), cell extract containing HDAC (HeLa in these experiments) is incubated with (cell signaling) rabbit polyclonal HDAC1 antibody (rabbit IgG antibody is used for background control) to allow binding of the enzyme to the antibody. In the second step, the complexed mixture is added to the protein A covered plate which captures the antibody. In the third step, after washing away unbound proteins, substrate and inhibitor are added and deacetylation is allowed to occur. […] The plate is then read on either Victor or Perkin Elmer Envision system using Umbilliferone filter set.
• A. HeLa extract complexed with HDAC1 antibody working solution (in DPBS):
Compound working solution (in HDAC buffer):
Compounds diluted in assay buffer at 2× Screening concentration. • D. Activator solution:
Trypsin (10 mg/mL) diluted 1:1600 in assay buffer containing 4 μM TSA.
Complexing of extract with antibody was carried out at room temperature for 60 min with rocking. Binding of complexes onto protein A plate was carried out at room temperature for 60 min in 50 μL. Reaction was carried out in […], in the protein A plate for 60 minutes at 37° C. 40 μL of the reaction was moved into white ½ area plate for activation and reading.
• 1. Set PIERCE Protein A plate to block with 150 μof 5% BSA in TB ST for 60 min at room temperature. • 2. […] Dilute complexes further ([…]) by addition of 3.5 mL of PBS (final total volume of 5 mL). • 4. Wash blocked protein A plate prior to complex addition with TBST. • 5. Add 50 μl of diluted complexes to Protein A plate and incubate for 60 min at room temperature. • 6. Wash plate with TB ST. • 7. Add 25 μl of diluted compounds (in HDAC buffer) to each well and incubate for 10 min at room temperature. • 8. […] Move 40 μl of reaction to a white plate and add 20 μl of activator/developer solution, mix thoroughly. • 10. Read plate.

The next experiment addresses T2, HDAC9 (Homo sapiens, UniProt Q9UKV0).
T2 construct: purchased BioMol
Put plainly: HDAC isoform assay, HDAC9. It is filed as biochemical.

Another experiment concerns the target T3, HDAC4 (Homo sapiens, UniProt P56524).
T3 construct: purchased BioMol
Put plainly: HDAC isoform assay, HDAC4. It is filed as biochemical. Conditions: substrate KI-177; read-out: HDAC4, IC50, ELISA (KI-177). On the technique in general: An ELISA detects its analyte on a solid surface through an enzyme-linked reagent.

T1 sequence (Q13547 whole entry): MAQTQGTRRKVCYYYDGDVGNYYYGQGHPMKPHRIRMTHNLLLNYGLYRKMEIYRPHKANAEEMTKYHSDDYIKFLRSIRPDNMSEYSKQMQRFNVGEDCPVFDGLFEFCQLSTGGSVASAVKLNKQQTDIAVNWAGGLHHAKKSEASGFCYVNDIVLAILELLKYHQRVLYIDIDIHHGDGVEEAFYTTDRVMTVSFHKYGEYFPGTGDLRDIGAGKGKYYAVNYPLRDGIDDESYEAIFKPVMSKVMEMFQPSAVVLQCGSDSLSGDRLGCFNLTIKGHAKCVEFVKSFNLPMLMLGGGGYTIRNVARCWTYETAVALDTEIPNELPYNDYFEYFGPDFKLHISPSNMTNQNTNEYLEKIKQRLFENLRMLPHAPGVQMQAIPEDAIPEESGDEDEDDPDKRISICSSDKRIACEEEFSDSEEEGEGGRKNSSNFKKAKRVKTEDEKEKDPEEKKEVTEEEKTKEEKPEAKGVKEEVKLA
T3 sequence (P56524 whole entry): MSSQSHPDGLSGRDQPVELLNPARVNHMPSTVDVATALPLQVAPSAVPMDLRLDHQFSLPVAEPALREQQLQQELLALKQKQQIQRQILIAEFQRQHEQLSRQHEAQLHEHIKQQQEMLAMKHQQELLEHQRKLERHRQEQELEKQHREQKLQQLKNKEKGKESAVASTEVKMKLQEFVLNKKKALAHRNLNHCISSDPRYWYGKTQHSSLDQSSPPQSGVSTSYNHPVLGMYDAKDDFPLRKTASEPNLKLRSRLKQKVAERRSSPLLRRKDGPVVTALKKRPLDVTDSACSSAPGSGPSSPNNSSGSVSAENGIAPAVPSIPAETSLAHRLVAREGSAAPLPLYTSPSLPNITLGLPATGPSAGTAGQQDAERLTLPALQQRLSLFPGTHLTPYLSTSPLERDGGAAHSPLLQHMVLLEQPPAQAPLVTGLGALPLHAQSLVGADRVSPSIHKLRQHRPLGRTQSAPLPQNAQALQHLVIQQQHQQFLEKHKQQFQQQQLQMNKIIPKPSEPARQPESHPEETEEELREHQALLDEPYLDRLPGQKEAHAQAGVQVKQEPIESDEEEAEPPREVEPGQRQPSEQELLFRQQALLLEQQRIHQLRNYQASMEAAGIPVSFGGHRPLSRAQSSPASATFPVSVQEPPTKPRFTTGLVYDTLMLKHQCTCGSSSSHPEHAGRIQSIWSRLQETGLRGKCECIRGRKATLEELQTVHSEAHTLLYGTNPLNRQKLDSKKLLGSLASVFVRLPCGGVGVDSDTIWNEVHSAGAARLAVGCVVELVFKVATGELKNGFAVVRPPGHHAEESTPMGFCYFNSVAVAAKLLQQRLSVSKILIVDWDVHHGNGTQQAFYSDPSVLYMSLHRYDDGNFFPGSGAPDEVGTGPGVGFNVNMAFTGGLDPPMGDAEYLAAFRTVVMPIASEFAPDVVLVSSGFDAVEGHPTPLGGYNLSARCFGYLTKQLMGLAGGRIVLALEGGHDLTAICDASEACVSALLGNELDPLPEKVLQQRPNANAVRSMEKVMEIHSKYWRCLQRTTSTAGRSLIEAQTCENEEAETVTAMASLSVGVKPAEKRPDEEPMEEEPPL
T2 sequence (Q9UKV0 whole entry): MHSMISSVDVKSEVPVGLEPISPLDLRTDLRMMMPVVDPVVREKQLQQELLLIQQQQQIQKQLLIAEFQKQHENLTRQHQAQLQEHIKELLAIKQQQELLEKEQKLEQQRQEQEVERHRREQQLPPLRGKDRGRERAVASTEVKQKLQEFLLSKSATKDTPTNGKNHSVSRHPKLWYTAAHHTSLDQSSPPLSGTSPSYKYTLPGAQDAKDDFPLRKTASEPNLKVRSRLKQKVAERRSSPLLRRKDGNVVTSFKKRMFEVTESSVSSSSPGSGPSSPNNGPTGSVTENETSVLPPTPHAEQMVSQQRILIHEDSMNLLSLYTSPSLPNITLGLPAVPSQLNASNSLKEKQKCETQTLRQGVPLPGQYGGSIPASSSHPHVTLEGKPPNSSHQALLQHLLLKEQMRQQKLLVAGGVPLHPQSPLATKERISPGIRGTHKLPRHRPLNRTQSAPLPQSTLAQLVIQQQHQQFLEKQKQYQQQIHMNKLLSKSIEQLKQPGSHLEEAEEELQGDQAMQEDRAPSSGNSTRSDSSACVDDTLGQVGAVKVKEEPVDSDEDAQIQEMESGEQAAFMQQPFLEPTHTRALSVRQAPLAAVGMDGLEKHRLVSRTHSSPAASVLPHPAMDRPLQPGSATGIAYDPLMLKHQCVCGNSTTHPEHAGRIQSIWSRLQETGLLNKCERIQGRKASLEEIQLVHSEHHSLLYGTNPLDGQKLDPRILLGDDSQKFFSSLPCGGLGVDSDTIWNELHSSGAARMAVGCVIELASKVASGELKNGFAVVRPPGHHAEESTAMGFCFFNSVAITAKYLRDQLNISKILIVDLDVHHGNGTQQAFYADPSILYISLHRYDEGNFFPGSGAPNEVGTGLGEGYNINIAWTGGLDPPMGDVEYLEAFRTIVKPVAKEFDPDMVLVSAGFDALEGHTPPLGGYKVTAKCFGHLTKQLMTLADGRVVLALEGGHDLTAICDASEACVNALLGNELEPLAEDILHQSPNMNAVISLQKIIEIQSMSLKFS

As to `O=C(CCCCCNC(=O)c1cn2c3c(cccc13)CCC2)NO` [compound 2, N-[6-(hydroxyamino)-6-oxohexyl]-5,6-dihydro-4H-pyrrolo[3,2,1-ij]quinoline-1-carboxamide], the concentration for half-maximal inhibition (IC50) was 13.2 nM against HDAC1 and 106 nM against HDAC9.
Regarding `O=C(CCCCCCNC(=O)c1cn2c3c(cccc13)CCC2)NO` [compound 3, N-[7-(hydroxyamino)-7-oxoheptyl]-5,6-dihydro-4H-pyrrolo[3,2,1-ij]quinoline-1-carboxamide], the IC50 at HDAC1 turned out to be 41 nM; on HDAC9, 413 nM; at HDAC4, 40.5 nM.
On to `O=C(CCCCCNC(=O)C(=O)c1cn2c3c(cccc13)CCC2)NO` [compound 8, 6-{[5,6-dihydro-4H-pyrrolo[3,2,1-ij]quinolin-1-yl(oxo)acetyl]amino}-N-hydroxyhexanamide], for which the IC50 against HDAC1 was 45 nM.
For the molecule `O=C(CCCNC(=O)C(=O)c1cn2c3c(cccc13)CCC2)NO` [compound 9, 4-{[5,6-dihydro-4H-pyrrolo[3,2,1-ij]quinolin-1-yl(oxo)acetyl]amino}-N-hydroxybutanamide], inhibition at HDAC1 was half-maximal at 583 nM (IC50).
For the molecule `O=C(CCCCCCNC(=O)Nc1cn2c3c(cccc13)CCC2)NO` [compound 11, 7-[(5,6-dihydro-4H-pyrrolo[3,2,1-ij]quinolin-1-ylcarbamoyl)amino]-N-hydroxyheptanamide], the IC50 amounted to 22 nM against HDAC1, 88.7 nM on HDAC9 and 40.4 nM at HDAC4.
As to `O=C(CCCCCCNC(=O)C(=O)c1cn2c3c(cccc13)CCC2)NO` [compound 12, 7-{[5,6-dihydro-4H-pyrrolo[3,2,1-ij]quinolin-1-yl(oxo)acetyl]amino}-N-hydroxyheptanamide], the IC50 against HDAC1 is 90.4 nM; on HDAC9, 1060 nM; at HDAC4 it was 298 nM.
In the case of `O=C(CCCCCNC(=O)Nc1cn2c3c(cccc13)CCC2)NO` [compound 13, 6-[(5,6-dihydro-4H-pyrrolo[3,2,1-ij]quinolin-1-ylcarbamoyl)amino]-N-hydroxyhexanamide], the results for the IC50 against HDAC1 and against HDAC9 were 18.9 nM and 97.2 nM, respectively.

What is called IC50 is the point on the concentration scale where inhibition reaches its midpoint.
